Data: patent US4999372A, “New aminochromanol compounds” (ADIR et Compagnie, priority 1988, dated 1991)
Where two headings read alike, the source gives them in different places.

Experiments:
anaesthetised dog = assay: Haemodynamic study in the anaesthetised dog (vascular resistances), i.v.; format: in vivo
Description: A complete haemodynamic study was carried out on mongrel dogs weighing from 25 to 30 kg, which were anaesthetised with sodium pentobarbital 30 mg/kg i.v., intubated and ventilated and subjected to a thoracotomy at the 5th left intercostal space. The measurement of the […] is carried out using electromagnetic rings positioned at the level of the ascending aorta and the circumflex branch of the left coronary artery, respectively, and connected to GOULD SP 2202 electromagnetic flow meters. The aortic pressure is measured by a MILLAR probe introduced via the femoral artery.
The total peripheral vascular resistance values (TPR) and the mean coronary vascular resistance values (CVRM) are calculated by the ratio between the mean aortic pressure and the mean cardiac output and the mean coronary output, respectively. The products tested were injected via the femoral vein in a form dissolved in water or a suitable solvent.
The evolution of the vascular resistances, expressed as percentage variation with respect to the control values, is presented as a function of time in the following Table.

aorta of the rat [1] = assay: Reactivity of rat aortic rings to 4-aminopyridine (4 AP); format: cell-based; settings: 4 AP 5 mM
Description: (§1) Male Wistar rats (325-375 g) are anaesthetised i.p. using sodium pentobarbital (30 mg/kg). The thoracic aorta and the mesenteric portal vein are removed. The aorta is dissected into rings 3 mm long and the endothelium is removed mechanically.
(§2) The organs are placed in a 20 ml thermostatically controlled vessel containing a physiological solution composed of (mM): NaCl 112; KCl 5; KH2 PO4 1; MgSO4 1.2; CaCl2 2.5; NaHCO3 25; glucose 11.5; EDTA 0.1; pH: 7.4; 37° C.; 95% O2 +5% CO2.
(§3) The initial force applied is 2 g in the case of the aorta and 0.5 g in the case of the portal vein. The variations in force are measured by a STATHAM sensor connected to a transducer amplifier (GOULD) and are monitored continuously on a GOULD 2400 graphic recorder.
(§4) The experimental protocols are as follows: After a stabilisation period of 90 minutes, the aortic rings are subjected to various tests:
reactivity to 4-aminopyridine (4 AP)
The product to be tested, at a given concentration, or its solvent, is incubated in the normal physiological solution 15 minutes before the addition of the 4 AP (5 mM).
The maximum amplitudes of the responses to the 4 AP in the presence of the product or the solvent are compared.
(§5) The products are used in a form dissolved in water or a suitable solvent.
(§6) The concentrations expressed refer to the final concentrations in terms of base in the isolated organ baths.

aorta of the rat [2] = assay: Relaxation of rat aortic rings contracted by potassium depolarisation (KCl); format: cell-based; settings: rat aorta rings without endothelium
Description: as §1, §2, §3, §4
potassium depolarisation:
The preparations are exposed to a 30 mM or 80 mM KCl (and 87 and 37 mM NaCl, respectively) hyperpotassium medium; after 30 minutes' stabilisation of contraction, cumulative concentrations of the product to be tested are added every 15 minutes. The relaxation values obtained allow the IC50 s to be calculated.
as §5, §6

[3] = test system: conscious renally hypertensive dog; assay: Arterial pressure in the conscious renally hypertensive dog; format: in vivo; settings: gastric intubation, 0.1 mg/kg
Description: Mongrel dogs weighing from 20 to 25 kg are used. A silastic catheter positioned under anaesthesia (sodium pentobarbital 30 mg/kg i.v.) at the level of the abdominal aorta and left over a prolonged period permits the later measurement of the arterial pressure in the conscious animals. Arterial hypertension is induced by a second intervention under anaesthesia consisting in a constriction of the left renal artery using a clip, which reduces its rate of flow by approximately 70%, the left kidney is enveloped in a latex capsule and the contralateral kidney is left in place.
The systolic and diastolic arterial pressures (PAS and PAD) are measured using a STATHAM P23 pressure sensor connected to the silastic catheter and linked to a GOULD pressure amplifier. The products are tested on the animals, which have become hypertensive, in the conscious state, at least one week after the second intervention. The arterial pressure is monitored continuously on an ES1000 GOULD recorder until 7 hours have elapsed after the treatment and then until 24 hours have elapsed.
The products to be tested are administered via the digestive system, after gastric intubation, in a form dissolved in water or a suitable solvent. The doses administered are expressed in mg of base with respect to body weight.
The representative products of the invention were compared with the reference product (CROMAKALIM). The variations in the systolic and diastolic arterial pressures (PAS and PAD), presented at the most significant times after treatment, are expressed as percentage variation with respect to the control values.

[4] = test system: spontaneously hypertensive rat (SHR); assay: Arterial pressure in the conscious spontaneously hypertensive rat (SHR), oral; format: in vivo
Description: The study is carried out on SHR male rats (Charles River) weighing from 260 g to 330 g and aged from 18 to 20 weeks. A polyethylene catheter is positioned at the level of the abdominal aorta and tunnelised at the level of the neck under anaesthesia (ketamine hydrochloride 150 mg/kg intraperitoneally). The animals, placed in movement-restraining cages, are tested in the conscious state at least 48 hours after intervention. The arterial pressure, measured by a STATHAM P23 pressure sensor connected to the abdominal catheter, is registered on a GOULD 2400 recorder. […] The doses administered are expressed in mg/kg of base.
The results obtained with a certain number of representative products of the invention and a reference product, CROMAKALIM, are grouped in the following Table. The variations in systolic and diastolic arterial pressure (PAS and PAD) presented at the most significant times after treatment are expressed as percentage variation with respect to the control values.

guinea pig = assay: Bronchospasm produced by a histamine aerosol at 4%, compound i.v.; format: in vivo; settings: 0.35 mg/kg i.v.
Description: The bronchodilating activity has been studied in the guinea pig by the method of H. KONZETT and R. ROSSLER, Arch. Exp. Path. U. Pharm. 195, 71 (1940).
For example, the bronchospasm produced in the guinea pig by a histamine aerosol et 4% is inhibited of 96% by the compound of Example 1 B form, at the dose of 0.30 mg/kg i.v., and of 100% by the compound of Example 24 B form, at the dose of 0.35 mg/kg i.v.

[5] = Rattus norvegicus, 30 mM KCl, read-out: IC50 (M) KCl 30 mM
[6] = Rattus norvegicus, 80 mM KCl, read-out: IC50 (M) KCl 80 mM

## CC1(C)Oc2ccc(C#N)cc2[C@@H](N2CCCC2=O)[C@@H]1O (relative stereo) [CROMAKALIM, reference compound]
Anaesthetised dog; 10 μg/kg, 1 min
  Variation (%) of CVRM after treatment: -69.0%
  Variation (%) of TPR after treatment: -26.8%
Anaesthetised dog; 10 μg/kg, 10 min
  Variation (%) of CVRM after treatment: -38.1%
  Variation (%) of TPR after treatment: -15.5%
Anaesthetised dog; 10 μg/kg, 30 min
  Variation (%) of CVRM after treatment: -27.4%
  Variation (%) of TPR after treatment: -7.8%
Aorta of the rat [1]; product 10^-5 M
  % inhibition of the response to 4AP: 74%
Aorta of the rat [1]; product 10^-7 M
  % inhibition of the response to 4AP: 13%
Aorta of the rat [2]; [5]
  IC50: 4.2e-07 M
Aorta of the rat [2]; [6]
  IC50: > 0.0001 M
[3]; 1 H
  Variation (%) of PAD after treatment: -23%
  Variation (%) of PAS after treatment: -26%
[3]; 3 H
  Variation (%) of PAD after treatment: -9%
  Variation (%) of PAS after treatment: -9%
[3]; 7 H
  Variation (%) of PAD after treatment: -5%
  Variation (%) of PAS after treatment: +2%
[3]; 24 H
  Variation (%) of PAD after treatment: +18%
  Variation (%) of PAS after treatment: +9%
[3]; 30 min
  Variation (%) of PAD after treatment: -46%
  Variation (%) of PAS after treatment: -50%
[4]; 0.3 mg/kg, 1 H
  Variation (%) of PAD after treatment: -26 ± 3%
  Variation (%) of PAS after treatment: -21 ± 3%
[4]; 0.3 mg/kg, 3 H
  Variation (%) of PAD after treatment: -7 ± 5%
  Variation (%) of PAS after treatment: -5 ± 4%
[4]; 0.3 mg/kg, 6 H
  Variation (%) of PAD after treatment: -3 ± 1%
  Variation (%) of PAS after treatment: -1 ± 2%
[4]; 0.3 mg/kg, 30 min
  Variation (%) of PAD after treatment: -34 ± 2%
  Variation (%) of PAS after treatment: -29 ± 2%
[4]; 1.0 mg/kg, 1 H
  Variation (%) of PAD after treatment: -33 ± 3%
  Variation (%) of PAS after treatment: -23 ± 4%
[4]; 1.0 mg/kg, 3 H
  Variation (%) of PAD after treatment: -25 ± 4%
  Variation (%) of PAS after treatment: -19 ± 3%
[4]; 1.0 mg/kg, 6 H
  Variation (%) of PAD after treatment: -20 ± 2%
  Variation (%) of PAS after treatment: -15 ± 2%
[4]; 1.0 mg/kg, 30 min
  Variation (%) of PAD after treatment: -44 ± 4%
  Variation (%) of PAS after treatment: -34 ± 5%

## CC1(C)Oc2ccc(C#N)cc2C(N2C(=O)CC[C@H]2CO)C1O (single isomer, unassigned) [Example 1 form A, 3R,4S- or 3S,4R-trans-2,2-dimethyl-3-hydroxy-4-(2-oxo-5S-hydroxymethyl-1-pyrrolidinyl)-6-cyanochroman]
Anaesthetised dog; 300 μg/kg, 1 min
  Variation (%) of CVRM after treatment: -81.5%
  Variation (%) of TPR after treatment: -41.9%
Anaesthetised dog; 300 μg/kg, 10 min
  Variation (%) of CVRM after treatment: -50.3%
  Variation (%) of TPR after treatment: -17.2%
Anaesthetised dog; 300 μg/kg, 30 min
  Variation (%) of CVRM after treatment: -34.9%
  Variation (%) of TPR after treatment: -12.9%
Aorta of the rat [1]; product 10^-5 M, listed as Ex. 1 Form A
  % inhibition of the response to 4AP: 35%
Aorta of the rat [2]; [6]
  IC50: > 0.0001 M
Aorta of the rat [2]; 30 mM KCl, listed as Ex. 1 Form A, read-out: IC50 (M) KCl 30 mM
  IC50: 7.7e-06 M

## COC[C@@H]1CCC(=O)N1C1c2cc(C#N)ccc2OC(C)(C)C1O (single isomer, unassigned) [Example 2 form A, 3S,4R- or 3R,4S-trans-2,2-dimethyl-3-hydroxy-4-(2-oxo-5S-methoxymethyl-1-pyrrolidinyl)-6-cyanochroman]
Anaesthetised dog; 30 μg/kg, 1 min
  Variation (%) of CVRM after treatment: -28.9%
  Variation (%) of TPR after treatment: -9.8%
Anaesthetised dog; 30 μg/kg, 10 min
  Variation (%) of CVRM after treatment: -20.2%
  Variation (%) of TPR after treatment: -11.8%
Anaesthetised dog; 30 μg/kg, 30 min
  Variation (%) of CVRM after treatment: -22.1%
  Variation (%) of TPR after treatment: -11.8%
Anaesthetised dog; 100 μg/kg, 1 min
  Variation (%) of CVRM after treatment: -54.7%
  Variation (%) of TPR after treatment: -15.8%
Anaesthetised dog; 100 μg/kg, 10 min
  Variation (%) of CVRM after treatment: -56.1%
  Variation (%) of TPR after treatment: -14.7%
Anaesthetised dog; 100 μg/kg, 30 min
  Variation (%) of CVRM after treatment: -50.5%
  Variation (%) of TPR after treatment: -12.6%
Aorta of the rat [2]; [5]
  IC50: 2.8e-07 M
Aorta of the rat [2]; [6]
  IC50: > 0.0001 M
[3]; 1 H
  Variation (%) of PAD after treatment: -20%
  Variation (%) of PAS after treatment: -12%
[3]; 3 H
  Variation (%) of PAD after treatment: -32%
  Variation (%) of PAS after treatment: -28%
[3]; 7 H
  Variation (%) of PAD after treatment: -44%
  Variation (%) of PAS after treatment: -41%
[3]; 24 H
  Variation (%) of PAD after treatment: 0%
  Variation (%) of PAS after treatment: -2%
[3]; 30 min
  Variation (%) of PAD after treatment: -14%
  Variation (%) of PAS after treatment: -2%
[4]; 1.0 mg/kg, 1 H
  Variation (%) of PAD after treatment: -21 ± 4%
  Variation (%) of PAS after treatment: -16 ± 3%
[4]; 1.0 mg/kg, 3 H
  Variation (%) of PAD after treatment: -19 ± 3%
  Variation (%) of PAS after treatment: -12 ± 3%
[4]; 1.0 mg/kg, 6 H
  Variation (%) of PAD after treatment: -14 ± 2%
  Variation (%) of PAS after treatment: -9 ± 2%
[4]; 1.0 mg/kg, 30 min
  Variation (%) of PAD after treatment: -17 ± 3%
  Variation (%) of PAS after treatment: -11 ± 2%
[4]; 3.0 mg/kg, 1 H
  Variation (%) of PAD after treatment: -36 ± 3%
  Variation (%) of PAS after treatment: -26 ± 2%
[4]; 3.0 mg/kg, 3 H
  Variation (%) of PAD after treatment: -31 ± 3%
  Variation (%) of PAS after treatment: -25 ± 3%
[4]; 3.0 mg/kg, 6 H
  Variation (%) of PAD after treatment: -27 ± 3%
  Variation (%) of PAS after treatment: -21 ± 3%
[4]; 3.0 mg/kg, 30 min
  Variation (%) of PAD after treatment: -35 ± 3%
  Variation (%) of PAS after treatment: -24 ± 1%

## CN(C)C[C@@H]1CCC(=O)N1C1c2cc(C#N)ccc2OC(C)(C)C1O (single isomer, unassigned) [Example 3 form A, 3R,4S- or 3S,4R-trans-2,2-dimethyl-3-hydroxy-4-(2-oxo-5S-dimethylaminomethyl-1-pyrrolidinyl)-6-cyanochroman]
Anaesthetised dog; 3000 μg/kg, 1 min
  Variation (%) of CVRM after treatment: +2.5%
  Variation (%) of TPR after treatment: +1.7%
Anaesthetised dog; 3000 μg/kg, 10 min
  Variation (%) of CVRM after treatment: -38.5%
  Variation (%) of TPR after treatment: -6.8%
Anaesthetised dog; 3000 μg/kg, 30 min
  Variation (%) of CVRM after treatment: -49.0%
  Variation (%) of TPR after treatment: -8.5%

## COC(=O)c1ccc2c(c1)C(N1C(=O)CCC1CO)C(O)C(C)(C)O2 (single isomer, unassigned) [Example 24 B form]
Guinea pig
  Inhibition of the bronchospasm produced by a histamine aerosol at 4%: 100%
